One block for each molecule: values may come before it.
What was measured:
[1] = target: T1, PARP-1 (Homo sapiens, UniProt P09874); assay: PET imaging of tracer retention in animal models of tumor radiation therapy; assay type: in vivo, mice; design: endogenous in cells; host or cells: HeLa xenografts and orthotopic MDA-MB-231 tumours in mice
Description: FIG. 8 illustrates a schematic showing animal studies performed with ^18F-PEG2-NAD (Substrate-based PARP-1 Activity Reporter: ^18F-SuPAR)
FIGS. 9A-9C illustrate the validation of ^18F-SuPAR in mice bearing HeLa tumor xenografts following radiation therapy.
FIGS. 10A-10C illustrate the validation of ^18F-SuPAR in mice bearing orthotopic MDA-MB-231 tumors following radiation therapy.
FIGS. 11A-11D illustrate the validation of PARP-1 as target of ^18F-SuPAR following inhibition by BMN673.
One advantageous tracer probe of the disclosure is an efficient analog of NAD that has been labelled by ^18F-radionuclide for PET imaging. It is contemplated, however, that other radionuclides detectable by PET imaging technology can be used in place of ^18F. Previously unknown relationships between NAD modification and PARP-1 substrate potential have been elucidated to synthesize the tracer, 6N-(triazo-PEG2-^18F)-NAD. This tracer was validated for PARP-1 activity in vivo in two animal models of tumor radiation therapy. […] Results were confirmed ex vivo by autoradiography and immunofluorescence analysis of tumor sections.

[2] = target: T1, PARP-1; assay: gel-shift assay for in vitro assessment of PARP-1 activity; assay type: biochemical
[3] = target: PARG (Homo sapiens, UniProt Q86W56); assay: PARG-mediated degradation of PAR formed from probe (gel); assay type: biochemical; settings: FIG. 4D
PARG, sequence (Q86W56 whole entry, species assumed): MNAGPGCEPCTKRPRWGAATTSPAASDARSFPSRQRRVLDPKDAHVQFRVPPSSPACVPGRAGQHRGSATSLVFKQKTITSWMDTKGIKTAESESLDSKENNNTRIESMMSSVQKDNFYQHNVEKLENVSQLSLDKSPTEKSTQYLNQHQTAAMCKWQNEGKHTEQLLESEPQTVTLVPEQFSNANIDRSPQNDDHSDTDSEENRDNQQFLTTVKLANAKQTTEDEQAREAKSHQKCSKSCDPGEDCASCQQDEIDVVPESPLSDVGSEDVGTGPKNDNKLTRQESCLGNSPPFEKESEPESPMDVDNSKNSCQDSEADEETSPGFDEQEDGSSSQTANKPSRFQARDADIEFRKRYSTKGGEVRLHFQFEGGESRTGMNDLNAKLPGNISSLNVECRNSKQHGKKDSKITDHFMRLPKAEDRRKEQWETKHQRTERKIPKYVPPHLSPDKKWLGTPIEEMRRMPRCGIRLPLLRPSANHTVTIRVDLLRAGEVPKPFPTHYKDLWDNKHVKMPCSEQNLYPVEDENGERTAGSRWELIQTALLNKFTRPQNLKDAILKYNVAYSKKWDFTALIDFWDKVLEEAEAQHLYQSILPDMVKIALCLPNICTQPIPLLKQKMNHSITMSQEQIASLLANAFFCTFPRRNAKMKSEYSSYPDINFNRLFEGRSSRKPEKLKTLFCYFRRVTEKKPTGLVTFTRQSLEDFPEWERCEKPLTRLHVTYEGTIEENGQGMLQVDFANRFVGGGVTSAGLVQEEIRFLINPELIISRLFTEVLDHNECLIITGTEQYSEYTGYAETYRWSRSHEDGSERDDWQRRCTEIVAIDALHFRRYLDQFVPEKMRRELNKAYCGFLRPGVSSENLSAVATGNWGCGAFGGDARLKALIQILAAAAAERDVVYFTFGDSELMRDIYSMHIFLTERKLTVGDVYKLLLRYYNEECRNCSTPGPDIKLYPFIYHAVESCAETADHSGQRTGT
Description: FIG. 4A illustrates novel substrate-based PARP-1 probes assessed for in vitro PARP-1 activity and PARG-mediated degradation of PAR.

[4] = target: T2, ARH3 (Homo sapiens, UniProt Q9NX46); assay: ARH3-mediated degradation of PAR formed from probe (gel); assay type: biochemical; settings: FIG. 4D
T2 sequence (Q9NX46 1-363): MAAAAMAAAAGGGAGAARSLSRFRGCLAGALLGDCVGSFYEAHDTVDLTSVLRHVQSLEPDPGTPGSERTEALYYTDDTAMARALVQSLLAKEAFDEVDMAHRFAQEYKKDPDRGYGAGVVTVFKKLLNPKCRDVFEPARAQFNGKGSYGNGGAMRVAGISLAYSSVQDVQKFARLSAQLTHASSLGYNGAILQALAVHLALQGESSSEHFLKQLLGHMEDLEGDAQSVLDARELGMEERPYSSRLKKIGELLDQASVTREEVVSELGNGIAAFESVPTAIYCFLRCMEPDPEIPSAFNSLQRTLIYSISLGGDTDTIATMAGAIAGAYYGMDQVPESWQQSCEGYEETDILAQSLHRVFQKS

T1 sequence (P09874 whole entry): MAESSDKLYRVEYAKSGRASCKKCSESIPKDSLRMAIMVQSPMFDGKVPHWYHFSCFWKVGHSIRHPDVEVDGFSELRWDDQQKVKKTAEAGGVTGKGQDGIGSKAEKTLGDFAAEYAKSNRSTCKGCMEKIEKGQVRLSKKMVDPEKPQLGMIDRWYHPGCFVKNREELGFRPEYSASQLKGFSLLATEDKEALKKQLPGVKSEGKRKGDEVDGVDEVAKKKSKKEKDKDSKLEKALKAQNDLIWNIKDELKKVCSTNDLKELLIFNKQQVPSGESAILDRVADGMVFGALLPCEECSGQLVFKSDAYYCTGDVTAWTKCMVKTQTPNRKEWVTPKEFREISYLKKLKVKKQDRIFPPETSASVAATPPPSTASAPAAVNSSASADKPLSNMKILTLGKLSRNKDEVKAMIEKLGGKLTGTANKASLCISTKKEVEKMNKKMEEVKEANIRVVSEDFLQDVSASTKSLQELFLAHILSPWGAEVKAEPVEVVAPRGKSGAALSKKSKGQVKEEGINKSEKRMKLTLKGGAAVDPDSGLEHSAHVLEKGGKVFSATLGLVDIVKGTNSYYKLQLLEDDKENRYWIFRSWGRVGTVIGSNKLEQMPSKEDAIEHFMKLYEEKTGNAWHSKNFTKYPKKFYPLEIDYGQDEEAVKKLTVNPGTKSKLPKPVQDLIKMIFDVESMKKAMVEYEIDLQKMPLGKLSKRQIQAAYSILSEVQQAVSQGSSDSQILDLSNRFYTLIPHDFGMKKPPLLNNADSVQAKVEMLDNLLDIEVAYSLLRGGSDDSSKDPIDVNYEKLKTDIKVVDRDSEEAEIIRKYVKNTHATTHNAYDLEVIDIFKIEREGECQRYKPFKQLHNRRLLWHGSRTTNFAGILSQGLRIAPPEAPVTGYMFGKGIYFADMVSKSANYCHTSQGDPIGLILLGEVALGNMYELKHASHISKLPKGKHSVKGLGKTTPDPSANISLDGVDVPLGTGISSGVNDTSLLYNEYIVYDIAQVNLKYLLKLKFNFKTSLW

probe target verification using a highly potent PARP-1 inhibitor ([1]; in vivo, confirmed ex vivo by autoradiography and immunofluorescence): verified as PARP-1 | time-dependence of maximal tracer uptake ([1]; two animal models of tumor radiation therapy): tumor-type specific
SMILES: NC(=O)c1ccc[n+](C2OC(COP(=O)(O)OP(=O)(O)OCC3OC(n4cnc5c(NCc6cn(COCC[18F])nn6)ncnc54)C(O)C3O)C(O)C2O)c1 (stereo not shown) [6N-(triazo-PEG2-^18F)-NAD]
tracer retention with increasing doses of radiation ([1]; 0, 5, 10 Gy, two animal models of tumor radiation therapy): dose-dependence of tracer retention was observed

SMILES: C#CCNc1ncnc2c1ncn2[C@@H]1O[C@H](COP(=O)(O)OP(=O)(O)OC[C@H]2O[C@@H]([n+]3cccc(C(N)=O)c3)[C@H](O)[C@@H]2O)[C@@H](O)[C@H]1O [LCD11, Nicotinamide 6-N-propargyladenine dinucleotide]
incorporation into high molecular weight PAR ([2]; low percentage ratios of alkyne probe to NAD, FIG. 6B): incorporation into high molecular weight PAR occurs

degradation by PARG [3]: resistance to degradation | degradation by ARH3 [4]: resistance to degradation
SMILES: NC(=O)c1ccc[n+]([C@@H]2O[C@H](COP(=O)(O)OP(=O)(O)OC[C@H]3O[C@@H](n4cnc5c(NCc6cn(CCOCCOCCF)nn6)ncnc54)[C@H](O)[C@@H]3O)[C@@H](O)[C@H]2O)c1 [LCD67]

inhibition of PARP-1 ([2]; gel, FIG. 2A): inhibits PARP-1
SMILES: Nc1cccc2c(=O)[nH][nH]c(=O)c12 [luminol, reference compound]

From US10196412B2, “Probe for imaging PARP-1 activity” (The Board of Trustees of the Leland Stanford Junior …, priority 2014, dated 2019)
